{"source": "patent US6600015B2", "about": "“Selective linear peptides with melanocortin-4 receptor (MC4-R) agonist activity” (Hoffmann-La Roche Inc., priority 2000, dated 2003)", "key": {"MC-4 receptor": {"molecular_target": "T1, MC-4 receptor (Homo sapiens, UniProt P32245)", "T1 construct": "expressed in transfected cells; host or cells: 293 cells (293MC4, obtained from Dr. Wei Gu, Millenium)", "T1 sequence (P32245 whole entry)": "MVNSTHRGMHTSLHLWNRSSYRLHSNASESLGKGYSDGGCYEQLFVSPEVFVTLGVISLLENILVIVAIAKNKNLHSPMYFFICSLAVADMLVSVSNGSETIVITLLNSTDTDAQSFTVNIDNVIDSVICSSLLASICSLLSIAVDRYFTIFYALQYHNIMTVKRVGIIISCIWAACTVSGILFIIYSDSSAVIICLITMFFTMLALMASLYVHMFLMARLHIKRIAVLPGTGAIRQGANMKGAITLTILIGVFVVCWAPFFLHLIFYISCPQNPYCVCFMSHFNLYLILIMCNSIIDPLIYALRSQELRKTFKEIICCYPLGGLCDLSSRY", "assay": "Agonist assay: cAMP response in 293 cells transfected with MC-4 receptor (Biotrak-cAMP SPA)", "assay_type": "cell-based", "conditions": "cAMP increase, read-out: EC50 for MC4-R agonist activity", "method": "Description: 293 cells transfected with either the MC-4 receptor or MC-1 receptor were grown in 96 well plates. The cells were stimulated with either 100 nM NDP-αMSH or screening compounds. Cyclic AMP was extracted from the cells and concentrations were determined using a Biotrak-cAMP SPA assay. Agonists were identified as those compounds causing an increase in cAMP. […] Wei Gu, Millenium) were cultured in 75cm^2flasks in D-MEM supplemented with 10% FCS and 500 μg/ml G418. Cells were trypsinized and split 1:3 into 96 well flat-bottom tissue culture treated plates. Cells were stimulated at confluence (day 2-4). cAMP Response: Compounds serially diluted in 100% DMSO were further diluted 1:200 (2.5 μl compound dilution+500 μl media) in D-MEM containing 10% FBS and 0.1 mM IBMX. For unstimulated cells, 2.5 μl of DMSO was added to 500 μl of media. For NDP-αMSH stimulated cells, 2.5 μl of 20 μM NDP-αMSH in 100% DMSO was added to 500 μl of media (final conc. 100 nM). Final concentration of DMSO in all wells was 0.5%. Note: Each sample was run in duplicate on separate plates Culture medium was removed from confluent 96 well culture plates and replaced with 200 μl of above dilutions into the appropriate wells . The plates were incubated for 1 hr at RT. […] [125I]cAMP binding to the SPA beads was determined by counting each plate for 2 minutes on a Packard TopCount™. […]"}, "MC-1 receptor": {"molecular_target": "T2, MC-1 receptor (Homo sapiens, UniProt Q01726)", "T2 construct": "expressed in transfected cells; host or cells: 293 cells", "T2 sequence (Q01726 whole entry)": "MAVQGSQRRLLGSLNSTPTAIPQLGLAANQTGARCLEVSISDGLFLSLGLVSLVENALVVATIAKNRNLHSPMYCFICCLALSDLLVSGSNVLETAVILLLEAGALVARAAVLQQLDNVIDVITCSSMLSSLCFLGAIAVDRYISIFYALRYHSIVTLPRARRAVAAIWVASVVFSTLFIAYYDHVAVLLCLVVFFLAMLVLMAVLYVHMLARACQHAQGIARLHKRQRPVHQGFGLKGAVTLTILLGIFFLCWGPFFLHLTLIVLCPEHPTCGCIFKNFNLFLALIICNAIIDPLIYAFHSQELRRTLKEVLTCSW", "assay": "Agonist assay: cAMP response in 293 cells transfected with MC-1 receptor (Biotrak-cAMP SPA)", "assay_type": "cell-based", "conditions": "MC1-R versus MC4-R agonist activity, transfected 293 cells", "quoted_text": "Culture medium was removed from confluent 96 well culture plates and replaced with 200 μl of above dilutions into the appropriate wells . The plates were incubated for 1 hr at RT. The media was removed, and the plates were washed 1× with 200^μl well of PBS. CAMP was extracted by the addition of 60 μl 70% ethanol (stored in the refrigerator). […]\ncAMP Assay: The extracted samples and all reagents included in the kit were brought to room temperature. […] [125I]cAMP binding to the SPA beads was determined by counting each plate for 2 minutes on a Packard TopCount™. […]"}}, "note": "Non-standard residues stand in square brackets, D forms with d. Residues, ends and D or L forms follow the SMILES beside them. *: point of attachment. Butyryl = CCCC(=O)*"}
{"smiles": "CCCCC(=O)NC1(C(=O)N[C@H](Cc2ccccc2)C(=O)N[C@@H](CCCNC(=N)N)C(=O)N[C@@H](Cc2c[nH]c3ccccc23)C(=O)NCC(N)=O)CC=C(c2ccccc2)CC1", "note": "(single isomer, unassigned) [Penta-Ape-(D)Phe-Arg-Trp-Gly-NH2]", "values": [{"measurement": "EC50", "setting": "MC-4 receptor", "result": "< 500", "unit": "nM"}]}
{"smiles": "CCCC(=O)N[C@@H](Cc1c[nH]cn1)C(=O)N[C@H](Cc1ccccc1)C(=O)N[C@@H](CCCNC(=N)N)C(=O)N[C@@H](Cc1c[nH]c2ccccc12)C(=O)NCC(N)=O", "note": "[Example 30, Bu-His-(D)Phe-Arg-Trp-Gly-NH2] (Butyryl-H[dF]RWG-NH2)", "values": [{"measurement": "MC1-R agonist activity compared with MC4-R agonist activity", "setting": "MC-1 receptor", "result": "greater MC1-R agonist activity than MC4-R agonist activity"}]}
